# Laboratory results reported in article PMC8615111, “Phenolic Thiazoles with Antioxidant and Antiradical Activity. Synthesis, In Vitro Evaluation, Toxicity, Electrochemical Behavior, Quantum Studies and Antimicrobial Screening” (Antioxidants, 2021).
# Read-outs that look alike come from different tables or passages of the source.
# Columns and labels:
# Cu^2+ chelation assay = assay type: biochemical
# [1] = Ferric ions (Fe^3+) reducing antioxidant power by cyclic voltammetry
# Procedure: The evaluated compounds’ stock solutions used were prepared at a concentration of 5 mM. To test their redox properties, dilutions of 0.5 mM and 2 mM were prepared in 0.1 M HClO4 electrolyte (pH = 1.2). Screen-printed electrodes (SPEs; Metrohm DropSens, Oviedo, Spain) (planar electrodes) with graphite and gold working electrodes were used. Cyclic voltammetry (CV) and differential pulse voltammetry (DPV) were the electrochemical methods applied. The experimental conditions for each test are mentioned near the corresponding data (Appendix A).
# (§1) The antioxidant properties were evaluated in terms of their activity against some free radicals, and other compounds reported in the literature, relevant for this purpose, such as: • ferric ions (Fe^3+)—used to test the reduction of the antioxidant character of the compounds; • DPPH˙ free radical– used to test the scavenging effect of the compounds on this radical; • hydrogen peroxide (H2O2)—used to test the scavenging effect of the synthesized molecules on this compound; • 2,2,6,6-tetramethylpiperidinyl-1-oxy (TEMPO)—used to test the scavenging effect of the synthesized molecules on this compound.
# This method is based on the evaluation of the influence of the compound measured by the direct reduction of Fe[(CN)6]^3− to […]. This assay is based on the reduction of Fe^3+ to Fe^2+ due to the action of antioxidants. Based on the electrochemical behavior of the studied compounds, the interaction of Fe^3+ was followed by cyclic voltammetry (CV) via the possible changes of redox peaks characteristic for Fe^3+/Fe^2+ transition after the interaction with antioxidants (if any).
# From the voltammogram of potassium ferricyanide it can be observed that the one-electron transfer process Fe^3+/Fe^2+ occurs at 0.247 V/ 0.150 V in acidic media (red) (Figure A1; Table A1).
# Each compound presents its characteristic peaks (blue line in each figure).
# [2] = DPPH˙ radical scavenging by cyclic voltammetry; conditions: for Ered (V): 2nd Ered column; for Ired (μA): 2nd Ired
# Procedure: as §1
# The radical scavenging properties of the novel compounds and the other antioxidants were determined using a stock DPPH˙ radical solution prepared in absolute ethanol. The antioxidant samples were mixed with DPPH˙ solution and HClO4 electrolyte and incubated in the dark for 30 min. The remaining redox activity of DPPH was measured by cycling the potential between −0.7 V and 1.2 V, with a scan rate of 0.1 V/s.
# The nitrogen-centered 2-2-diphenyl-1-picrylhydrazyl radical (DPPH˙) based assay is one of the most commonly employed method to evaluate the ability of a compound to scavenge or neutralize free radicals based on the reduction of the radical.
# Taking into account the redox activity of DPPH˙, its diminution by an antioxidant can also be followed by CV, which is expected to show changes in the voltammetric peaks. Figure A5 reports the electrochemical study of initial electrooxidation of DPPH˙ and the novel compounds compared to remaining peaks after their incubation for 30 min. The decrease of all the peaks after mixture incubation indicates the partial consumption of DPPH˙.
# HaCaT cells = experiment: Cytotoxicity determination, MTT method; assay type: cell-based; conditions: Homo sapiens, HaCaT cells, MTT, 24 h
# Procedure: To determine the cytotoxic action of the obtained compounds 5[…], and 8a-b, a normal human keratinocytes cell line was used (HaCaT keratinocytes, CLS-300493, Eppelheim, Germany). HaCaT cells were cultured in Dulbecco's Modified Eagle Media (DMEM) supplemented with 1% L-glutamine, 1% penicillin-streptomycin, and 5% fetal bovine serum. At 80% confluence, the cells were transferred to 96 well plates at a confluence of 12×10^3 cells/well and left to attach for 24 h at 37°C and 5% CO2 in a humidified atmosphere. […] After 24 h, the culture media was replaced with 100 μL of MTT solution at a final concentration of 5 μg/mL/well and left to interact with the cells for 2 h in the incubator. After this, the MTT solution was replaced with 100 μL of isopropanol, left to dissolve the formazan crystals for 5 min, and read at 550 and 630 nm using a BioTek Epoch plate reader (BioTek Instruments, Winooski, VT, USA) and Gen5 software (version 1.09).
# [3] = ABTS˙^+ radical scavenging assay; assay type: biochemical
# Procedure: The assay was based on the decolorization of green (2,2′-azinobis-(3-ethylbenzothiazoline-6-sulfonic acid) ABTS˙^+ to ABTS, on the principle reported by Re et al. and was carried out according to our previously published research.
# Later, 1950 µL of ABTS˙^+ reagent was added to all cuvettes and they were shaken for well over 10 min in the dark at room temperature. The absorbance of the resulted solutions found in cuvettes was determined spectrophotometrically at λ = 734 nm. The ABTS scavenging activity of the compounds was calculated using the following Equation (1):(1) ABTS scavenging (%)=control absorbance−sample absorbance/control absorbance×100
# [4] = DPPH˙ radical scavenging assay; assay type: biochemical
# Procedure: The 2,2-diphenyl-1-picrylhydrazyl (DPPH˙) radical scavenging assay is based on the transfer of one hydrogen from the analyzed compound to the violet radical DPPH˙. This will convert it to a yellow compound, the change in absorbance being proportional to the amount of DPPH˙ neutralized, according to Brand-Williams et al..
# The preparation of the DPPH˙ reagent was previously reported by our group. […] Over the previous quantities, DMSO was added until a total volume of 50 µL was obtained in all cuvettes, and 1950 µL of DPPH˙ solution was added to all cuvettes; then, they were shaken for well over 10 min in the dark at room temperature. The absorbances of the solutions were measured at λ = 517 nm. The DPPH˙ radical scavenging activity of evaluated compounds was calculated using Equation (2):(2) DPPH scavenging (%)=control absorbance−sample absorbance/control absorbance×100
# [5] = compound 0.5 mM + Fe^3+/Fe^2+ (0.5 mM potassium ferricyanide), 1st Eox column
# [6] = compound 0.5 mM + Fe^3+/Fe^2+ (0.5 mM potassium ferricyanide), 1st Iox column
# [7] = compound + Fe^3+/Fe^2+, 1st Ered
# [8] = compound + Fe^3+/Fe^2+, 1st Ired
# [9] = compound + Fe^3+/Fe^2+, 2nd Eox
# [10] = compound + Fe^3+/Fe^2+, 2nd Ered column
# [11] = compound + Fe^3+/Fe^2+, 2nd Iox column
# [12] = compound + Fe^3+/Fe^2+, 2nd Ired
# [13] = compound + Fe^3+/Fe^2+, 3rd Iox column
# [14] = compound + Fe^3+/Fe^2+, 5th Eox
# [15] = compound + Fe^3+/Fe^2+, 5th Iox column
# [16] = compound alone 0.5 mM in 0.1 M HClO4, 2nd Eox
# [17] = compound alone 0.5 mM in 0.1 M HClO4, 2nd Ered column
# [18] = compound alone 0.5 mM in 0.1 M HClO4, 2nd Iox column
# [19] = compound alone 0.5 mM in 0.1 M HClO4, 2nd Ired
# [20] = compound + DPPH, 30 min, 2nd Eox
structure (smiles),measurement,setting,value
"C/C(=N\Nc1nc(C)cs1)c1ccc(O)cc1O [Compound 5a, Dihydroxy-Phenyl-Thiazol-Hydrazinium chloride]","Chelation Capacity (%), cupric ions",Cu^2+ chelation assay; 3.36 µg/mL,10.74%
same,"Chelation Capacity (%), cupric ions",Cu^2+ chelation assay; 6.72 µg/mL,14.51%
same,"Chelation Capacity (%), cupric ions",Cu^2+ chelation assay; 10.08 µg/mL,20.10%
same,"Chelation Capacity (%), cupric ions",Cu^2+ chelation assay; 13.44 µg/mL,28.62%
same,"Chelation Capacity (%), cupric ions",Cu^2+ chelation assay; 16.80 µg/mL,33.67%
same,Eox (V),[1]; [5],0.152 V
same,Iox (μA),[1]; [6],3.69 μA
same,Ered (V),[1]; [7],0.091 V
same,Ired (μA),[1]; [8],−7.33 μA
same,Eox (V),[1]; [9],0.308 V
same,Ered (V),[1]; [10],0.323 V
same,Iox (μA),[1]; [11],16.21 μA
same,Ired (μA),[1]; [12],−0.99 μA
same,Iox (μA),[1]; [13],4.14 μA
same,Eox (V),[1]; [14],0.903 V
same,Iox (μA),[1]; [15],3.82 μA
same,Eox (V),[1]; [16],0.308 V
same,Ered (V),[1]; [17],0.318 V
same,Iox (μA),[1]; [18],8.83 μA
same,Ired (μA),[1]; [19],−1.23 μA
same,Eox (V),"[1]; compound alone 0.5 mM in 0.1 M HClO4, 3rd Eox column",0.573 V
same,Iox (μA),"[1]; compound alone 0.5 mM in 0.1 M HClO4, 3rd Iox column",5.23 μA
same,Eox (V),"[1]; compound alone 0.5 mM in 0.1 M HClO4, 5th Eox",0.997 V
same,Iox (μA),"[1]; compound alone 0.5 mM in 0.1 M HClO4, 5th Iox column",9.78 μA
same,Iox (μA),"[2]; compound + DPPH, 30 min",13.23 μA
same,Eox (V),[2]; [20],0.362 V
same,Ered (V),"[2]; compound + DPPH, 30 min",0.188 V
same,Ired (μA),"[2]; compound + DPPH, 30 min",−5.46 μA
same,Eox (V),"[2]; compound + DPPH, 30 min, 3rd Eox column",0.572 V
same,Iox (μA),"[2]; compound + DPPH, 30 min, 3rd Iox column",11.81 μA
same,Eox (V),"[2]; compound + DPPH, after 30 min of reaction, 1st Eox column",0.218 V
same,Iox (μA),"[2]; compound + DPPH, after 30 min of reaction, 1st Iox column",8.68 μA
same,Iox (μA),[2]; compound alone,43.29 μA
same,Eox (V),"[2]; compound alone, 2nd Eox",0.339 V
same,Ered (V),[2]; compound alone,0.137 V
same,Ired (μA),[2]; compound alone,−9.59 μA
same,Eox (V),"[2]; compound alone, 3rd Eox column",0.598 V
same,Iox (μA),"[2]; compound alone, 3rd Iox column",20.51 μA
same,Eox (V),"[2]; compound alone, 4th Eox column",0.987 V
same,Iox (μA),"[2]; compound alone, 4th Iox column",15.5 μA
same,IC50,HaCaT cells; read-out: IC50,102 µM
same,IC50,HaCaT cells; read-out: IC50 (µg/mL),30.7 µg/mL
"Cc1csc(N/N=C/c2ccc(O)cc2O)n1.Cl [Compound 5b, (E)-2-(2,4-dihydroxybenzylidene)-1-(4-methylthiazol-2-yl)hydrazin-1-ium chloride]",% of ABTS˙^+ Scavenged,[3]; 0.5 µg/mL,35.55%
same,% of ABTS˙^+ Scavenged,[3]; 0.75 µg/mL,41.10%
same,% of ABTS˙^+ Scavenged,[3]; 1 µg/mL,48.40%
same,% of ABTS˙^+ Scavenged,[3]; 1.5 µg/mL,66.50%
same,% of ABTS˙^+ Scavenged,[3]; 2.5 µg/mL,98.09%
same,IC50,[3]; ABTS˙^+ scavenging,1.00 µg/mL
same,% of DPPH˙ Scavenged,[4]; 1 µg/mL,16.46%
same,% of DPPH˙ Scavenged,[4]; 1.5 µg/mL,24.42%
same,% of DPPH˙ Scavenged,[4]; 2 µg/mL,34.44%
same,% of DPPH˙ Scavenged,[4]; 3 µg/mL,52.10%
same,% of DPPH˙ Scavenged,[4]; 5 µg/mL,87.08%
same,IC50,[4]; DPPH˙ scavenging,2.90 µg/mL
same,"Chelation Capacity (%), cupric ions",Cu^2+ chelation assay; 3.36 µg/mL,11.58%
same,"Chelation Capacity (%), cupric ions",Cu^2+ chelation assay; 6.72 µg/mL,15.60%
same,"Chelation Capacity (%), cupric ions",Cu^2+ chelation assay; 10.08 µg/mL,22.76%
same,"Chelation Capacity (%), cupric ions",Cu^2+ chelation assay; 13.44 µg/mL,28.99%
same,"Chelation Capacity (%), cupric ions",Cu^2+ chelation assay; 16.80 µg/mL,34.10%
same,Eox (V),[1]; [5],0.152 V
same,Iox (μA),[1]; [6],5.57 μA
same,Ered (V),[1]; [7],0.093 V
same,Ired (μA),[1]; [8],−8.66 μA
same,Eox (V),[1]; [9],0.342 V
same,Ered (V),[1]; [10],0.323 V
same,Iox (μA),[1]; [11],22.3 μA
same,Ired (μA),[1]; [12],−1.52 μA
same,Eox (V),"[1]; compound + Fe^3+/Fe^2+, 3rd Eox column",0.505 V
same,Iox (μA),[1]; [13],1.20 μA
same,Eox (V),"[1]; compound + Fe^3+/Fe^2+, 4th Eox column",0.506 V
same,Iox (μA),"[1]; compound + Fe^3+/Fe^2+, 4th Iox column",8.68 μA
same,Eox (V),[1]; [14],0.806 V
same,Iox (μA),[1]; [15],8.68 μA
same,Eox (V),[1]; [16],0.355 V
same,Ered (V),[1]; [17],0.327 V
same,Iox (μA),[1]; [18],15.68 μA
same,Ired (μA),[1]; [19],−1.56 μA
same,Iox (μA),"[2]; compound + DPPH, 30 min",33.3 μA
same,Eox (V),[2]; [20],0.349 V
same,Ered (V),"[2]; compound + DPPH, 30 min",0.145 V
same,Ired (μA),"[2]; compound + DPPH, 30 min",−7.56 μA
same,Iox (μA),[2]; compound alone,31.76 μA
same,Eox (V),"[2]; compound alone, 2nd Eox",0.357 V
same,Ered (V),[2]; compound alone,0.11 V
same,Ired (μA),[2]; compound alone,−10.26 μA
same,IC50,HaCaT cells; read-out: IC50,176 µM
same,IC50,HaCaT cells; read-out: IC50 (µg/mL),50.3 µg/mL
